Experimental data published in ChEMBL document CHEMBL3886852, “Triazolo compounds as PDE10 inhibitors” (2016).

Target: cAMP and cAMP-inhibited cGMP 3',5'-cyclic phosphodiesterase 10A (Homo sapiens, UniProt Q9Y233)
Experiment: Scintillation Proximity Assay: The human PDE10A full length assay was performed in 96-well micro titer plates. The reaction mixture of 50 μl contained 20 mM HEPES pH=7.5/10 mM MgCl2/0.05 mg/ml BSA (Sigma cat. # A-7906), 50 nM cGMP (Sigma, cat. # G6129) and 50 nM [3H]-cGMP (GE Healthcare, cat. # TRK392 S.A. 13.2 Ci/mmol), 3.75 ng/well PDE10A enzyme (Enzo Life Science, Lausen, Switzerland cat # SE-534) with or without a specific test compound. A range of concentrations of the potential inhibitor was used to generate data for calculating the concentration of inhibitor resulting in 50% of the effect (e.g. IC50, the concentration of the competitor inhibiting PDE10A activity by 50%). Non-specific activity was tested without the enzyme. The reaction was initiated by the addition of the substrate solution (cGMP and [3H]-cGMP) and allowed to progress for 20 minutes at room temperature. The reaction was terminated by adding 25 μl of YSi-SPA scintillation beads (GE Healthcare, cat. # RPNQ0150) in 18 mM zinc sulphate solution (stop reagent). After 1 h under shaking, the plate was centrifuged one minute at 170 g to allow beads to settle. Afterwards, radioactive counts were measured on a Perkin Elmer Top-Count Scintillation plate reader.

Sequence of cAMP and cAMP-inhibited cGMP 3',5'-cyclic phosphodiesterase 10A (Q9Y233 whole entry): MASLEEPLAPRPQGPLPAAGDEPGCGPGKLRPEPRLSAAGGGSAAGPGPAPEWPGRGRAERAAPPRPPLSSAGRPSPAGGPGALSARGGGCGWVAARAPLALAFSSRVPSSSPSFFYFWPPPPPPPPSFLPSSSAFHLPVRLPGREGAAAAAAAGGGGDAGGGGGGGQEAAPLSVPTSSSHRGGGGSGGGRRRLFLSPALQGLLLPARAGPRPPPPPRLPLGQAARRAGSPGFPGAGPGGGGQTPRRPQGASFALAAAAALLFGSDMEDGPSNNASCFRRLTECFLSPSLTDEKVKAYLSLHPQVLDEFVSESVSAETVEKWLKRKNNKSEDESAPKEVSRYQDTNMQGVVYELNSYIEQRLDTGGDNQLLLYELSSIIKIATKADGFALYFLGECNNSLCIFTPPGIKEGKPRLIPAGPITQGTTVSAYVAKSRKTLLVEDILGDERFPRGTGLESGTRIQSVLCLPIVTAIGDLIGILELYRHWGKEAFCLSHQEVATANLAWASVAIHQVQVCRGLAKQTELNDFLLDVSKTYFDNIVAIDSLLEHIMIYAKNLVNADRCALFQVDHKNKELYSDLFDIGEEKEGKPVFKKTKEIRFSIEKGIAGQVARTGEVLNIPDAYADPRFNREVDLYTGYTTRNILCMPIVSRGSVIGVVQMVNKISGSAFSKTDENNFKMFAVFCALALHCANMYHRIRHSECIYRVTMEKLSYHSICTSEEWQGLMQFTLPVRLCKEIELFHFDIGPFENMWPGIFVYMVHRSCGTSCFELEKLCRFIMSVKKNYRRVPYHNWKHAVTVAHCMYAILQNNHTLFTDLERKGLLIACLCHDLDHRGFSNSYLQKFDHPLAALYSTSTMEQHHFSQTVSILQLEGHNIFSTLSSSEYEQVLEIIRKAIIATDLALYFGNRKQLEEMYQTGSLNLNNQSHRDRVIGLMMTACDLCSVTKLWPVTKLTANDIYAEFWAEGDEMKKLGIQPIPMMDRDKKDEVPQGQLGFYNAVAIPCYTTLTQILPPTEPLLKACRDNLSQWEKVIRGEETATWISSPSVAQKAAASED

Structure (SMILES)	IC50
Cn1nc(N2CCCC2)nc1CCc1nc2c(Br)cc(C(F)(F)F)cn2n1	36.5 nM
Cc1ccn2nc(CCc3nc(N4CCCC4)nn3C)nc2c1C	4.49 nM
Cc1c(C#N)ccc2nc(CCc3nc(N4CCCC4)nn3C)nn12	3.47 nM
Cc1ncc(C)n2nc(CCc3nc(N4CCCC4)n(C)n3)nc12	2.68 nM
Cc1ncc(C)n2nc(CCc3nc(N(C)C)nn3C)nc12	334 nM
